According to patent publication US20040077031A1, “Novel methionine aminopeptidase-2 and uses thereof” (priority 2002, published 2004):
“Also recorded” adds a separate entry of the source. Read-outs that look alike come from different tables or passages of the source. Blank lines part the entries; values can stand above or below the molecule they belong to.

What was measured:
MetAP1 [1] = biological target: T1, MetAP1 (Homo sapiens, UniProt P53582); test: Metal dependence of MetAP1 in the presence of glutathione, radioactive methionine assay; format: biochemical; conditions: 5 mM glutathione
T1 construct: histidine tag (N); gp67 secretion signal of vector pAcGP67B (N); made in house; host or cells: baculovirus-infected Sf9 insect cells, secreted into medium
Procedure: Fmoc-L-Lys(biotinyl) —OH was purchased from Bachem (King of Prussia, Pa.). Fmoc-L-[methyl-^3H]Methionine was synthesized by reacting Fmoc-Cl with L-[methyl-^3H]Methionine (Amersham, Piscataway, N.J.) in a 1:1 Dioxane/10% Na2CO3(aq) mixed solvent. The peptides were deprotected and cleaved from the resin using a trifluoroacetic acid solution containing water, thioanisole, and ethanedithiol (900 μl:25 μl:50 μl:25 μl) as scavengers. The peptides were purified by HPLC using a Waters C18 Symmetry column (7.8×300 mm, 7 μm; Milford, Mass.). […] The resulting amount of cleaved radioactive methionine is directly proportional to the catalytic activity of the MetAP. […] (See U.S. Pat. No. 6,156,495 for a discussion of labels and uses thereof). Conversely, anything impairing the catalytic activity of MetAP (e.g., inhibitory agents, wrong metal cofactor) will result in a decreased amount of free radioactive methionine.
To study the effect of metal ions in the presence of physiologically relevant reduced glutathione (GSH) (Walker and Bradshaw, 1998), the assay measuring radioactive methionine release from a peptide described in Example 3.2 was used because GSH affected the coupled enzyme chromogenic assay.

MetAP2 [2] = biological target: T2, MetAP2 (Homo sapiens, UniProt P50579); test: Metal dependence and baseline activity of MetAP2, chromogenic assay; format: biochemical
T2 construct: gp67 secretion signal of vector pAcGP67B (N); made in house; host or cells: baculovirus-infected Sf9 insect cells, secreted into medium
From the text: (§1) A coupled-enzyme chromogenic assay was used to measure methionine aminopeptidase activity by monitoring the production of free methionine cleaved from specific peptide substrates containing methionine. […] Other peptides can be used including dimeric, tetrameric, pentameric, hexameric, heptameric, nonameric, decameric, and undecameric peptides. […] Free methionine was oxidized with L-amino acid oxidase (AAO, Sigma Catalog No. A-9378) and horseradish peroxidase (HRP, Sigma Catalog No. P-8451). Oxidation by AAO of free methionine generates hydrogen peroxide (H2O2) which then reacts with HRP oxidizing 0-dianisidine (Sigma Catalog No. D-1954) or 10-acetyl-3,7-dihydrophenoxazine (Amplex Red, Molecular Probes). Assays were performed in 96-well microtiter plates. Enzyme preparations were diluted in assay buffer (50 mM HEPES, pH 7.4, 100 mM NaCl), and 10 μl of the enzymes were introduced into each well. A mixture (90 μl) of 0.1 mg/ml L-amino acid oxidase, 0.1 mg/ml of horseradish peroxidase, 0.1 mg/ml ortho-dianisidine, and 0.5 mM peptide substrate was added to each cell. The reactions were carried out at room temperature, and the absorbance at 450 nanometer (A450) was measured every 20 seconds over a period of twenty minutes using an automatic plate reader (Molecular Devices, Calif., USA). The rate in mOD/min, calculated for each well, was used to represent MetAP1 or MetAP2 activity. Under this assay condition, the methionine cleaved from peptide substrate by MetAP1 or MetAP2 was instantaneously oxidized to generate a final A450 readout.
Both MetAP1 and MetAP2 need the presence of a metal in the active site for optimal activity, and have previously been classified as Co^2+, metalloproteases (Arfin et al, 1995; Li and Chang, 1996). […]

MetAP1 [3] = biological target: T1, MetAP1; test: Metal dependence and baseline activity of MetAP1, chromogenic assay; format: biochemical
From the text: as §1
Both MetAP1 and MetAP2 need the presence of a metal in the active site for optimal activity, and have previously been classified as Co^2+, metalloproteases (Arfin et al, 1995; Li and Chang, 1996). […] Calcium chloride (Ca^2+), cobalt chloride (Co^2+), cupric chloride (Cu^2+), ferrous chloride (Fe^2+), magnesium chloride (Mg^2+), manganese chloride (Mn^2+), nickel chloride (Ni^2+), or zinc chloride (Zn^2+) was included in each assay at final concentrations of 0, 0.1, 1, 10, 100, 1000, and 10,000 μM in the assay buffer (50 mM HEPES, pH 7.4, 100 mM NaCl).

MetAP2 [4] = biological target: T2, MetAP2; test: MetAP2 enzyme inhibition, coupled-enzyme chromogenic assay; format: biochemical
From the text: as §1
(§2) The cellular activity of A-357300 was tested in HMVEC grown in complete EGM2 medium enriched with a combination of growth factors (vascular endothelial growth factor (VEGF), basic fibroblast growth factor (bFGF), epidermal growth factor (EGF), and insulin-like growth factor (IGF)) and fetal bovine serum. […] To determine that the cellular effect of A-357300 was through inhibition of cellular MetAp2, HMVEC were incubated with the MetAP2 inhibitors fumagillin and A-357300 for 4 hours before ^35S-methionine was added to the culture. After another 2-hour incubation, cellular proteins were collected and applied to a reactive dye-agarose column as described in Example 6. MetAP2 specific substrates (GAPDH and other cellular proteins with a N-terminal cleavable initiator methionine) were captured on the agarose column.

HMVEC = test: 3-day HMVEC proliferation assay; format: cell-based, human
Procedure: as §2

HMVEC cells = test: Penetration and accumulation into HMVEC cells; format: in vitro ADME, human
cellular MetAP2 = biological target: T3, cellular MetAP2 (Homo sapiens, UniProt P50579); test: Cellular MetAP2 activity (unprocessed initiator methionine of cellular proteins) in HMVEC; format: cell-based; conditions: for inhibition of cellular MetAP2 activity / initiator methionine processing: HMVEC
T3 construct: host or cells: HMVEC
Procedure: Human microvascular endothelial cells (HMVEC) (Clonetics, San Diego, Calif.) were grown in EGM2 recommended medium (Wang et al., J. Cell. Biochem. 77: 465-473, 2000). Cells in T75 flasks at approximately 70% confluence were changed to 15 ml EGLM (labeling medium, Clonetics) without added methionine. Fumagillin (Sigma Catalog No. F-6771) or A310840 (Abbott Laboratories, Abbott Park, Ill.) was added to the culture to final concentrations of 1 nM (fumagillin) or 0.5, 2 and 5 μM (A310840). The cells and inhibitors were incubated for four hours before adding 0.5 mCi/flask of ^35S-methionine (Amersham, Piscataway, N.J.). The cells were allowed further incubation for two hours, washed and lysed in 1 ml M-per (Pierce, Rockford, Ill.) buffer. The lysate samples having the same amount of radioactivity were loaded to a 0.5 ml column of Reactive Blue 72-agarose (Sigma, St. Louis, Mo.) equilibrated with 20 mM Tris/HCl, pH 7.5, 150 mM NaCl. The columns were washed with 30 ml equilibrium buffer, and then incubated with 3 ml of 100 nM MetAP2 in equilibration/washing buffer for 20 minutes at room temperature. The MetAP2 cleaved radioactivity (unprocessed initiator methionine) was then counted.
as §2

MetAP2 [5] = biological target: T2, MetAP2; test: Kinetic constants of MetAP2 with Mn2+ on peptide substrates (chromogenic assay); format: biochemical; conditions: MetAP2 with 100 μM Mn2+
From the text: as §1, with “A mixture (90 μl) of 0.1 mg/ml L-amino acid oxidase, 0.1 mg/ml of horseradish peroxidase, 0.1 mg/ml ortho-dianisidine, and 0.5 mM peptide substrate was added to each cell.” left out

MiaPaCa2 = test: Cell proliferation inhibition; format: cell-based; conditions: Homo sapiens, MIA PaCa-2, Tumor cells, read-out: IC50s of proliferation inhibition
From the text: (§3) Table 2 summarizes the selectivity of MetAP2 inhibitors in inhibiting the proliferation of endothelial cells and certain tumor cells. Proliferation of endothelial cells of various origins, normal human primary cells pf non-EC type, and tumor cell lines were studied with MetAP2 inhibitors A-357300 and fumagillin. […] Most tumor cells were […] while some were resistant.

PC3 = test: Cell proliferation inhibition; format: cell-based; conditions: Homo sapiens, PC-3, Tumor cells, read-out: IC50s of proliferation inhibition
From the text: as §3

DLD-1 = test: Cell proliferation inhibition; format: cell-based; conditions: Homo sapiens, Tumor cells, read-out: IC50s of proliferation inhibition
From the text: as §3

Human CEC = test: Cell proliferation inhibition; format: cell-based; conditions: EC, read-out: IC50s of proliferation inhibition
From the text: as §3

NCI-H460 = test: Cell proliferation inhibition; format: cell-based; conditions: Homo sapiens, Tumor cells, read-out: IC50s of proliferation inhibition
From the text: as §3

CHP-134 = test: Cell proliferation inhibition; format: cell-based; conditions: Homo sapiens, Tumor cells, read-out: IC50s of proliferation inhibition
From the text: as §3

MDA-MB = test: Cell proliferation inhibition; format: cell-based; conditions: Tumor cells, read-out: IC50s of proliferation inhibition
From the text: as §3

HCT-15 = test: Cell proliferation inhibition; format: cell-based; conditions: Homo sapiens, Tumor cells, read-out: IC50s of proliferation inhibition
From the text: as §3

T-lymphocytes = test: Cell proliferation inhibition; format: cell-based; conditions: T-lymphocyte, Normal human primary cells, read-out: IC50s of proliferation inhibition
From the text: as §3

MDA-435-LM = test: Cell proliferation inhibition; format: cell-based; conditions: Homo sapiens, Tumor cells, read-out: IC50s of proliferation inhibition
From the text: as §3

A549 = test: Cell proliferation inhibition; format: cell-based; conditions: Homo sapiens, Tumor cells, read-out: IC50s of proliferation inhibition
From the text: as §3

Fibroblasts = test: Cell proliferation inhibition; format: cell-based; conditions: Fibroblast, Normal human primary cells, read-out: IC50s of proliferation inhibition
From the text: as §3

BEND3 (mouse) = test: Cell proliferation inhibition; format: cell-based; conditions: EC, read-out: IC50s of proliferation inhibition
From the text: as §3

Astrocytes = test: Cell proliferation inhibition; format: cell-based; conditions: Astrocyte, Normal human primary cells, read-out: IC50s of proliferation inhibition
From the text: as §3

BAEC (bovine) = test: Cell proliferation inhibition; format: cell-based; conditions: Bos taurus, EC, read-out: IC50s of proliferation inhibition
From the text: as §3

[6] = tested on: Prostate Epithelial cells; test: Cell proliferation inhibition; format: cell-based; conditions: Normal human primary cells, read-out: IC50s of proliferation inhibition
From the text: as §3

MCF7 = test: Cell proliferation inhibition; format: cell-based; conditions: Homo sapiens, Tumor cells, read-out: IC50s of proliferation inhibition
From the text: as §3

Mammary Epithelial cells = test: Cell proliferation inhibition; format: cell-based; conditions: Normal human primary cells, read-out: IC50s of proliferation inhibition
From the text: as §3

HT-1080 = test: Cell proliferation inhibition; format: cell-based; conditions: Homo sapiens, Tumor cells, read-out: IC50s of proliferation inhibition
From the text: as §3

HMVEC/HUVEC = test: Cell proliferation inhibition; format: cell-based; conditions: Homo sapiens, read-out: IC50s of proliferation inhibition
Procedure: as §2

T3 sequence (P50579 whole entry): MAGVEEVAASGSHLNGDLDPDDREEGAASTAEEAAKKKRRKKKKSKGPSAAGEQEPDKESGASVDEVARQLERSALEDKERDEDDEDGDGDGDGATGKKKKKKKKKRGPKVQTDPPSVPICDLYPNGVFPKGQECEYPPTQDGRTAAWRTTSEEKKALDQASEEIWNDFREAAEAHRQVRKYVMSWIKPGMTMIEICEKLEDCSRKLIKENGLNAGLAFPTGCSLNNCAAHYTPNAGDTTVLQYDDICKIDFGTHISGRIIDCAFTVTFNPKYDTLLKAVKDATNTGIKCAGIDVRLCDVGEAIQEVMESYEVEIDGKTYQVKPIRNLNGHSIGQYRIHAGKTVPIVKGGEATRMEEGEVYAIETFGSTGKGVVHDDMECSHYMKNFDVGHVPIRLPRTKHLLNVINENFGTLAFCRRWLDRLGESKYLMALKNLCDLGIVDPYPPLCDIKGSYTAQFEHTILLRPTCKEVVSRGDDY
T2 sequence (P50579 whole entry): as above

Molecule: [Cl][Co][Cl] [Co^2+, cobalt chloride]
- effect on MetAP1 activity (MetAP1 [1]): stimulatory
- metal concentration of maximum effect on MetAP2 (MetAP2 [2]): 10 µM
- stimulation of MetAP1 activity (MetAP1 [3]; MAS substrate): about 2 fold
- stimulation of MetAP1 activity (MetAP1 [3]; MGAQFSKT substrate): 5 fold

Molecule: manganese chloride [Mn^2+]
- metal concentration of maximum effect on MetAP2 (MetAP2 [2]): 1 µM
- concentration that fully stimulated human MetAP2 activity (MetAP2 [2]; in the presence and absence of physiological concentrations of GSH): 1 µM
- stimulation of MetAP1 activity (MetAP1 [3]; MAS substrate): about 2 fold
- stimulation of MetAP1 activity (MetAP1 [3]; MGAQFSKT substrate): 3 fold

Molecule: [Cl-].[Cl-].[Zn+2] [Zn^2+, zinc chloride]
- effect on MetAP1 activity (MetAP1 [1]): showed the best activity

- inhibition of MetAP2-Mn2+ (MetAP2 [4]; Mn2+ as metal cofactor): did not inhibit
- fold less active as inhibitor of MetAP2 with Mn2+ (MetAP2 [4]; Mn2+ form versus baseline, Co2+ and other metal forms): 1000 fold
- IC50 (MetAP2 [4]; other metal ions including Zn2+, Fe2+, and Ni2+, read-out: IC50 on MetAP2 with many other metal ions): 10 to 117 nM
- IC50 (MetAP2 [4]; without added metals, read-out: IC50 on the baseline activity of MetAP2): 60 nM
- penetration and accumulation into HMVEC cells (HMVEC cells): able to penetrate and accumulate
- inhibition of cellular MetAP2 activity / initiator methionine processing (cellular MetAP2): did not inhibit
- processing of protein initiator methionine in HMVEC (cellular MetAP2; treatment up to 10 μM): not blocked
Molecule: c1ccc2cc(CSc3nnc[nH]3)ccc2c1 [A310840, 3-((2-naphthylmethyl)sulfanyl)-4H-1,2,4-triazole]
- inhibition of HMVEC cell proliferation (HMVEC): did not inhibit

Molecule: MGKVKVG
- Km (MetAP2 [5]): 215 µM
- kcat (MetAP2 [5]): 9.563 s⁻¹

- effect on MetAP1 activity (MetAP1 [1]): stimulatory
Molecule: [Cl][Fe][Cl] [Fe^2+, ferrous chloride]

Molecule: CO[C@@H]1[C@H](OC(=O)/C=C/C=C/C=C/C=C/C(=O)O)CC[C@]2(CO2)[C@H]1[C@@]1(C)O[C@@H]1CC=C(C)C [Fumagillin, fumagillin]
- IC50 (MiaPaCa2): > 1000 nM
- IC50 (PC3): > 1000 nM
- IC50 (DLD-1): 2 nM
- IC50 (Human CEC): 1 nM
- IC50 (NCI-H460): 3 nM
- IC50 (CHP-134): 1 nM
- IC50 (MDA-MB): > 1000 nM
- IC50 (HCT-15): 3 nM
- IC50 (T-lymphocytes): 8300 nM
- IC50 (MDA-435-LM): > 1000 nM
- IC50 (A549): 2 nM
- IC50 (Fibroblasts): > 1000 nM
- IC50 (BEND3 (mouse)): 2 nM
- IC50 (Astrocytes): > 1000 nM
- IC50 (BAEC (bovine)): 1 nM
- IC50 [6]: > 1000 nM
- IC50 (MCF7): > 1000 nM
- IC50 (Mammary Epithelial cells): > 1000 nM
- IC50 (HT-1080): 1 nM
- inhibition of MetAP2 with all metal ions (MetAP2 [4]; all metal ions): inhibited MetAP2 with all metal ions
- inhibition of HMVEC cell proliferation (HMVEC; 1 nM): inhibition of cell proliferation
- IC50 (HMVEC/HUVEC): 1 nM
- unprocessed N-terminal initiator methionine of cellular proteins in HMVEC (cellular MetAP2; 1 nM): increased; also recorded: accumulation of unprocessed N-terminal methionine
- inhibition of cellular MetAP2 activity / initiator methionine processing (cellular MetAP2): inhibition; also recorded: able to block
